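Briefly, cells in 96-well plates were exposed to five compound concentrations for 48 h, and endpoints were estimated by linear interpolation. Abbreviation: GI50, concentration required for 50% inhibition of growth.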 The source made the active and inactive calls. No stated cut-off is given here; in the data, active = GI50 up to about 1.1 µM and inactive = higher.

Holding throughout (experiment): NCI tumour cell line growth inhibition, 48 h
Assay [1] concerns 786-0.
Assay [2] deals with CAKI-1.
Assay [3] has as its system CCRF-CEM.
For assay [4], the system named is EKVX.
For assay [5], the system named is HCC 2998.
Assay [6] concerns HL-60.
The test system of assay [7] is HOP-62.
Assay [8] deals with HT-29.
In assay [9] the test system is NCI-H460.
The test system of assay [10] is OVCAR-3.
Assay [11] relates to SF-268.
Assay [12] deals with SF-295.
The test system of assay [13] is SF-539.
Assay [14] relates to SK-MEL-28.
The test system of assay [15] is SK-MEL-5.
Assay [16] deals with SK-OV-3.
In assay [17] the test system is RPMI-8226.

For `Cn1cc/c(=N\N=c2/ccn(C)c3ccccc23)c2ccccc21`, the GI50 was 16.4 µM (inactive) in assay [1]; 17.9 µM (inactive) in assay [2]; 6.31 µM (inactive) in assay [3]; 14.7 µM (inactive) in assay [4]; 15.8 µM (inactive) in assay [5]; 5.78 µM (inactive) in assay [6]. The GI50 in assay [7] is 13.1 µM (inactive); in assay [8], 12.7 µM (inactive); in [9], 12.1 µM (inactive); in assay [10] it was 11.7 µM (inactive); in assay [11] it was 19.3 µM (inactive); in [12], 16.1 µM (inactive). The GI50 in [13] is 15.9 µM (inactive); in assay [14], 15.2 µM (inactive); in assay [15], 15.9 µM (inactive); in [16], 15.7 µM (inactive).

In the case of `CN(C)CCSc1cccc(-c2cc(-c3cccc(SCCN(C)C)c3)nc(SCCN(C)C)n2)c1`, the GI50 was 7.85 µM (inactive) in [1]; 1.69 µM (inactive) in assay [3]; 2.06 µM (inactive) in [4]; 2.29 µM (inactive) in assay [5]; 1.85 µM (inactive) in assay [6]; 16.3 µM (inactive) in assay [7]. Further, the GI50 in [8] is 1.55 µM (inactive); in [9], 1.85 µM (inactive); in assay [10], 10.2 µM (inactive); in assay [12], 2 µM (inactive); in [13], 1.77 µM (inactive); in [14], 1.93 µM (inactive). Also, the GI50 in [15] is 1.55 µM (inactive); in [16], 30.1 µM (inactive).

As to `O=C(c1ccccc1)[C@H]1Nc2ccc(Cl)cc2[C@H]2CCC[C@@H]12`, the GI50 in assay [1] was 44.9 µM (inactive); in [2], 59.8 µM (inactive); in [5] it was 30.5 µM (inactive); in [7] it was > 100 µM (inactive); in assay [8] it was 21 µM (inactive); in assay [9], 24.5 µM (inactive). In addition, the GI50 in assay [10] is 27.2 µM (inactive); in [17] it was 11.9 µM (inactive); in assay [11] it was 31.7 µM (inactive); in assay [12], 32.1 µM (inactive); in [13] it was 33.2 µM (inactive); in [14], 19.4 µM (inactive). Moreover, in [15], the GI50 is 10.3 µM (inactive).

For the compound `Cc1nc([N+](=O)[O-])cn1CC(=N)N`, the GI50 in assay [1], in [3], in [4], in assay [5], in assay [6] and in assay [7] was > 100 µM (inactive) each time. Also, the GI50 in assay [8], in assay [9], in assay [10], in assay [17], in assay [11] and in [12] was > 100 µM (inactive) throughout. The GI50 in assay [13], in assay [14] and in assay [15] was > 100 µM (inactive) each time.

For the compound `CCCCCCCCCCCCCCCCCC(=O)OCC(CN(C)CCN(C)C)OC(=O)CCCCCCCCCCCCCCCCC` (stereo not given), the GI50 in assay [1] is > 100 µM (inactive); in assay [2] it was > 100 µM (inactive); in [3] it was 42.9 µM (inactive); in assay [4] it was > 100 µM (inactive); in assay [5] it was 75.9 µM (inactive); in [7], > 100 µM (inactive). Besides, the GI50 is 40.2 µM (inactive) in assay [8]; > 100 µM (inactive) in assay [9]; > 100 µM (inactive) in [10]; > 100 µM (inactive) in assay [17]; 45.3 µM (inactive) in assay [11]; 63.4 µM (inactive) in [12]. The GI50 in assay [14], in assay [15] and in assay [16] was > 100 µM (inactive) throughout.

On to `Cc1ccc(S(=O)(=O)OCOS(=O)(=O)c2ccc(C)cc2)cc1`, for which the GI50 in assay [1], in assay [3], in assay [4], in assay [5], in assay [6] and in assay [7] was > 100 µM (inactive) each time. For the same compound, the GI50 in [9] is 58.1 µM (inactive); in assay [10], > 100 µM (inactive); in assay [17], > 100 µM (inactive); in [11] it was > 100 µM (inactive); in assay [12], > 100 µM (inactive); in assay [13] it was > 100 µM (inactive). For the same compound, the GI50 in assay [14], in assay [15] and in [16] was > 100 µM (inactive) in each case.

As for `COc1ccc(OC(=O)CC2Cc3cc(OC)c(OC)c(OC)c3-c3ccc(SC)c(=O)cc32)cc1` (stereo not given), the GI50 was 0.0551 µM (active) in assay [1]; 0.184 µM (active) in assay [3]; > 28.7 µM (inactive) in [4]; 0.0568 µM (active) in assay [5]; 0.0893 µM (active) in [6]; 0.183 µM (active) in assay [7]. In addition, the GI50 was 0.342 µM (active) in [8]; 0.245 µM (active) in [9]; 0.185 µM (active) in [10]; 0.128 µM (active) in assay [17]; 2.74 µM (inactive) in [11]; 0.0794 µM (active) in assay [12]. Besides, the GI50 in assay [13] was 0.114 µM (active); in assay [14], 0.698 µM (active); in assay [15], 0.378 µM (active); in [16], 0.0277 µM (active).

As for `CCOC(=O)N1CCc2cc(OC)c(OC)cc2/C1=C/c1ccc(OC)c(OC)c1`, the GI50 in assay [1] was 42.8 µM (inactive); in assay [3], 29 µM (inactive); in [4], 79.4 µM (inactive); in assay [5], 42.6 µM (inactive); in assay [6] it was 23.6 µM (inactive); in assay [7], 84.5 µM (inactive). Moreover, the GI50 in [8] was 28.4 µM (inactive); in assay [10] it was 61.4 µM (inactive); in assay [17], 19.3 µM (inactive); in [11], 79.6 µM (inactive); in assay [12], 52.2 µM (inactive); in assay [13], > 100 µM (inactive). The results for the GI50 in assay [14], in [15] and in assay [16] were > 100 µM (inactive), 20.9 µM (inactive) and > 100 µM (inactive), respectively.

Take `NC(=O)/C(=N\NC(=O)c1cc2ccccc2cc1O)C1C(=O)N(c2ccccc2)N=C1N` (stereo not given): the GI50 in assay [1] is 40 µM (inactive); in assay [3], 11.7 µM (inactive); in assay [4], 32.2 µM (inactive); in [5], 37.9 µM (inactive); in [6], 6 µM (inactive); in assay [7] it was 34 µM (inactive). The GI50 was 44.2 µM (inactive) in [8]; > 100 µM (inactive) in assay [9]; 28 µM (inactive) in [10]; 13.8 µM (inactive) in [17]; 17.2 µM (inactive) in [11]; 33 µM (inactive) in assay [12]. For the same compound, the GI50 in [14] is 73.6 µM (inactive); in assay [15], 18.4 µM (inactive).

For `CCOC(=O)Cc1ccc2c(c1O)C(=O)c1c(ccc(CC(=O)OCC)c1O)C2=O`, the GI50 was > 100 µM (inactive) in assay [1]; 59 µM (inactive) in [3]; > 100 µM (inactive) in assay [4]; > 100 µM (inactive) in assay [5]; > 100 µM (inactive) in assay [6]; > 100 µM (inactive) in assay [7]. Moreover, the GI50 is > 100 µM (inactive) in assay [8]; 47.8 µM (inactive) in [10]; > 100 µM (inactive) in assay [17]; > 100 µM (inactive) in [11]; > 100 µM (inactive) in assay [12]; > 100 µM (inactive) in assay [13]. Besides, the GI50 in assay [14] is 96.2 µM (inactive); in assay [15] it was 20.4 µM (inactive); in [16] it was > 100 µM (inactive).

For the compound `O=C(O)C1=CCCc2ccc3ccccc3c21`, the GI50 in assay [1] was > 100 µM (inactive); in assay [3] it was > 10 µM (inactive); in assay [4], > 100 µM (inactive); in [8], > 100 µM (inactive); in assay [9], > 100 µM (inactive); in assay [10], > 100 µM (inactive). Also, the GI50 in assay [17], in assay [11], in [12], in [13], in assay [14] and in assay [16] was > 100 µM (inactive) each time.

`COc1cccc(NC(=O)CC(=O)N2N=C(N3c4ccccc4Sc4ccccc43)CC2c2ccccc2)c1` (stereo not given): the GI50 in [1], in [2], in [4], in assay [5], in assay [7] and in [8] was > 100 µM (inactive) each time. For the same compound, the GI50 in [9], in assay [10], in assay [17], in assay [11], in [12] and in assay [13] was > 100 µM (inactive) each time. Besides, the GI50 in assay [14], in assay [15] and in assay [16] was > 100 µM (inactive) each time.

Turning to `O=C(Nc1cc([N+](=O)[O-])cc([N+](=O)[O-])c1)OC1C2CCC1C1OC1C2` (stereo not given), the GI50 in [1] was > 50 µM (inactive); in assay [3], > 50 µM (inactive); in [4], > 50 µM (inactive); in assay [5], > 50 µM (inactive); in assay [6] it was 32.1 µM (inactive); in assay [7], > 50 µM (inactive). For the same compound, the GI50 in assay [9] was > 50 µM (inactive); in [10] it was 29.6 µM (inactive); in [17], 22.6 µM (inactive); in [11] it was 33.7 µM (inactive); in assay [12] it was > 50 µM (inactive); in assay [13] it was > 50 µM (inactive). Further, the GI50 in [14] was > 50 µM (inactive); in assay [15] it was 31.3 µM (inactive); in [16] it was > 50 µM (inactive).

The values above are taken from ChEMBL document CHEMBL1201862, “PubChem BioAssay data set” (2004).
